Assay results as given in ChEMBL document CHEMBL1147319, “Spectroscopic and biological investigation of nimbolide and 28-deoxonimbolide from Azadirachta indica” (1989).
≈ marks a conversion by molar mass, not a printed value.

Assays:
Type in all cases: functional
P388 = experiment: Cytotoxicity against mouse P388 cells after 48 hrs; conditions: P388, 48 h, read-out: ED50 (the source's name)
HT-1080 = experiment: Cytotoxicity against human HT1080 cells after 48 hrs; conditions: HT-1080, 48 h, read-out: ED50 (the source's name)
KB = experiment: Cytotoxicity against human KB cells after 72 hrs; conditions: read-out: ED50 (the source's name)
Lu1 = experiment: Cytotoxicity against human Lu1 cells; conditions: read-out: ED50 (the source's name)
SK-MEL-2 = experiment: Cytotoxicity against human SK-MEL-2 cells after 72 hrs; conditions: SK-MEL-2, 72 h, read-out: ED50 (the source's name)
Col2 = experiment: Cytotoxicity against human Col2 cells after 72 hrs; conditions: Col2, 72 h, read-out: ED50 (the source's name)
[1] = Cytotoxicity against human BC1 cells after 72 hrs; conditions: BC1, 72 h, read-out: ED50 (the source's name)

Q: What does the source list for `COC(=O)C[C@H]1[C@]2(C)C3=C(C)[C@H](c4ccoc4)C[C@H]3O[C@@H]2[C@@H]2OC[C@]3(C)C=CC(=O)[C@@]1(C)[C@@H]23`?
A: EC50 (P388): 0.66 µg/mL (≈ 1.46 µM); EC50 (HT-1080): 1.04 µg/mL (≈ 2.3 µM); EC50 (KB): 1.3 µg/mL (≈ 2.87 µM); EC50 (Lu1): 0.84 µg/mL (≈ 1.86 µM); EC50 (SK-MEL-2): 2.05 µg/mL (≈ 4.53 µM); EC50 (Col2): 1.81 µg/mL (≈ 4 µM); EC50 [1]: 1.34 µg/mL (≈ 2.96 µM)

Q: Which EC50 (P388) does the source give for `COC(=O)C[C@H]1[C@]2(C)C3=C(C)[C@H](c4ccoc4)C[C@H]3O[C@@H]2[C@@H]2OC(=O)[C@]3(C)C=CC(=O)[C@@]1(C)[C@@H]23` [NIMBOLIDE] here?
A: 0.065 µg/mL (≈ 0.139 µM)

Q: And the EC50 (HT-1080)?
A: 0.31 µg/mL (≈ 0.664 µM)

Q: And the EC50 (KB)?
A: 0.25 µg/mL (≈ 0.536 µM)

Q: What about the EC50 (Lu1) of the same molecule?
A: 0.42 µg/mL (≈ 0.9 µM)

Q: What about the EC50 (SK-MEL-2) of the same molecule?
A: 0.53 µg/mL (≈ 1.14 µM)

Q: And the EC50 (Col2)?
A: 0.41 µg/mL (≈ 0.879 µM)

Q: What about the EC50 [1] of the same molecule?
A: 0.39 µg/mL (≈ 0.836 µM)
